Calls of active or inactive are those of the source. The calls are words filed in the database; no cut-off is given here. Square brackets hold non-standard residues; d marks the D form. Peptide text beside a SMILES is read from it. Dip = N[C@H](C(=O)O)C(c1ccccc1)c1ccccc1; hPhe = N[C@@H](CCc1ccccc1)C(=O)O; Tic = O=C(O)[C@@H]1Cc2ccccc2CN1; Pip = O=C(O)[C@@H]1CCCCN1; hSer = N[C@@H](CCO)C(=O)O; Nva = CCC[C@H](N)C(=O)O
Columns and labels:
[1] = target: T1, Thioredoxin reductase 1, cytoplasmic (Homo sapiens) (UniProt Q16881); assay: Inhibition of oxidized human TXR1 reductase activity by insulin reduction assay
T1 sequence (whole entry): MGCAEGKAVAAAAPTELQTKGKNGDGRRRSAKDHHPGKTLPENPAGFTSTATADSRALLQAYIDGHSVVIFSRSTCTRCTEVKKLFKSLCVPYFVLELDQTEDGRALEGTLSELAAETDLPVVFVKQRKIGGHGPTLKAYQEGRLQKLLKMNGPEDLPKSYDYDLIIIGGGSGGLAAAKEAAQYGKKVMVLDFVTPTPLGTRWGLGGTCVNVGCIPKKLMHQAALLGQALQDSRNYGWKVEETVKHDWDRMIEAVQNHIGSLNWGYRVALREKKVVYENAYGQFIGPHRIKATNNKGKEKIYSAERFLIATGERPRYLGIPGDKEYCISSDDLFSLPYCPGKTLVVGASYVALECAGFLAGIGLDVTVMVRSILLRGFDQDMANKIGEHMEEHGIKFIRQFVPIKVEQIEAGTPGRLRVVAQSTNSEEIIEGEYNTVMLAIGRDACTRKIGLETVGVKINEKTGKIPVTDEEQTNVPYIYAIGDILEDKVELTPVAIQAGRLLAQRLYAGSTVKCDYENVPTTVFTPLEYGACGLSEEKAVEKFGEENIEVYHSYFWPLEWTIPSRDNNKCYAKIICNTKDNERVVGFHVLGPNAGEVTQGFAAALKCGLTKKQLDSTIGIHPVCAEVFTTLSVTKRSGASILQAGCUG

[2] = target: T2, Thiol:disulfide interchange protein DsbA (Escherichia coli (strain K12), UniProt P0AEG4); assay: Binding affinity to oxidized Escherichia coli DsbA by isothermal titration calorimetry assay
T2 sequence (P0AEG4 whole entry): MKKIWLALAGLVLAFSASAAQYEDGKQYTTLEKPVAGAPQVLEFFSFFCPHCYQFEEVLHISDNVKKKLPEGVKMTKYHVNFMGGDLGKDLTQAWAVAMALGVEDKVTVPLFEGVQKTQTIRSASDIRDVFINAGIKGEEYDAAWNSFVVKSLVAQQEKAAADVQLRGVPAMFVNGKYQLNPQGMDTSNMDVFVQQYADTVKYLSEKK

[3] = target: T3, Thiol:disulfide interchange protein DsbA (Escherichia coli (strain K12)) (UniProt P0AEG4); assay: Binding affinity to Escherichia coli DsbA assessed as change in melting temperature at 250 uM by Thermal shift assay
T3 sequence (whole entry): T2 sequence (P0AEG4 whole entry)

[4] = target: T3, Thiol:disulfide interchange protein DsbA (Escherichia coli (strain K12)); assay: Binding affinity to Escherichia coli DsbA assessed as change in melting temperature at 1 mM by Thermal shift assay
[5] = target: T3, Thiol:disulfide interchange protein DsbA (Escherichia coli (strain K12)); assay: Binding affinity to Escherichia coli DsbA assessed as change in melting temperature at 500 uM by Thermal shift assay
[6] = target: T3, Thiol:disulfide interchange protein DsbA (Escherichia coli (strain K12)); assay: Binding affinity to Escherichia coli DsbA assessed as change in melting temperature at 2 mM by Thermal shift assay
[7] = target: T3, Thiol:disulfide interchange protein DsbA (Escherichia coli (strain K12)); assay: Binding affinity to Escherichia coli DsbA assessed as change in melting temperature at 125 uM by Thermal shift assay
[8] = target: T3, Thiol:disulfide interchange protein DsbA (Escherichia coli (strain K12)); assay: Binding affinity to Escherichia coli DsbA assessed as change in melting temperature at 4 mM by Thermal shift assay

Kd [2]	Kd ([2]; read-out: Kd) [µM]	Compound	also measured
		CC(=O)N1CCC[C@H]1C(=O)N[C@@H](Cc1c[nH]c2ccccc12)C(=O)N[C@@H](C)C(=O)N[C@H](C(=O)N[C@@H](CS)C(=O)N[C@@H](CC(=O)O)C(=O)N[C@@H](CO)C(N)=O)[C@@H](C)O	inhibition [1]: inactive
Not Active		CCC[C@H](NC(=O)[C@@H](NC(=O)[C@H](C)NC(=O)[C@H](Cc1c[nH]c2ccccc12)NC(=O)[C@@H]1CCCN1C(=O)[C@H](CO)NC(=O)[C@@H]1CCCN1C(C)=O)[C@@H](C)O)C(N)=O (Ac-PSPWAT[Nva]-NH2)	
Not Active		CC(=O)N1CCC[C@H]1C(=O)N[C@@H](CO)C(=O)N1CCC[C@H]1C(=O)N[C@@H](Cc1c[nH]c2ccccc12)C(=O)N[C@@H](C)C(=O)N[C@H](C(=O)N[C@@H](CCO)C(N)=O)[C@@H](C)O (Ac-PSPWAT[hSer]-NH2)	
	9.7	CC(=O)N1CCC[C@H]1C(=O)N[C@@H](CO)C(=O)N1CCC[C@H]1C(=O)N[C@H](C(=O)N[C@@H](C)C(=O)N[C@H](C(=O)N[C@@H](CS)C(N)=O)[C@@H](C)O)C(c1ccccc1)c1ccccc1 (Ac-PSP[Dip]ATC-NH2)	
	14.9	CC(=O)N1CCC[C@H]1C(=O)N[C@@H](CO)C(=O)N1CCC[C@H]1C(=O)N[C@@H](CCc1ccccc1)C(=O)N[C@@H](C)C(=O)N[C@H](C(=O)N[C@@H](CS)C(N)=O)[C@@H](C)O (Ac-PSP[hPhe]ATC-NH2)	
	12	CC(=O)N1CCC[C@H]1C(=O)N[C@@H](CO)C(=O)N1CCCC[C@H]1C(=O)N[C@@H](Cc1c[nH]c2ccccc12)C(=O)N[C@@H](C)C(=O)N[C@H](C(=O)N[C@@H](CS)C(N)=O)[C@@H](C)O (Ac-PS[Pip]WATC-NH2)	
	13.1	CC(=O)N1CCC[C@H]1C(=O)N[C@@H](CO)C(=O)N1Cc2ccccc2C[C@H]1C(=O)N[C@@H](Cc1c[nH]c2ccccc12)C(=O)N[C@@H](C)C(=O)N[C@H](C(=O)N[C@@H](CS)C(N)=O)[C@@H](C)O (Ac-PS[Tic]WATC-NH2)	
	8.3	CC(=O)N1CCC[C@H]1C(=O)N[C@@H](CCc1ccccc1)C(=O)N[C@@H](C)C(=O)N[C@H](C(=O)N[C@@H](CS)C(=O)N[C@@H](CC(=O)O)C(=O)N[C@@H](CO)C(N)=O)[C@@H](C)O (Ac-P[hPhe]ATCDS-NH2)	
	2.7	Ac-ASPWATCDF-NH2	
	2.8	Ac-PAPWATCDF-NH2	
	5.9	Ac-PFATCDF-NH2	
	13.1	Ac-PFATCDS-NH2	ΔTm [3]: 1.7 °C; ΔTm [4]: 5.3 °C; ΔTm [5]: 3.3 °C; ΔTm [6]: 7.2 °C; ΔTm [7]: 0.6 °C; ΔTm [8]: 9 °C
	5.5	Ac-PSAWATCDF-NH2	
	5.8	Ac-PSPAATCDF-NH2	
	11.3	Ac-PSPWAACDF-NH2	
Not Active		Ac-PSPWATADF-NH2	
	18	Ac-PSPWATC-NH2	
	3.1	Ac-PSPWATCAF-NH2	
	10.7	Ac-PSPWATCD-NH2	
	4.4	Ac-PSPWATCDA-NH2	
	2.9	Ac-PSPWATCDF-NH2	
Not Active		Ac-PSPWATIDF-NH2	
Not Active		Ac-PSPWATM-NH2	
Not Active		Ac-PSPWATN-NH2	
Not Active		Ac-PSPWATSDF-NH2	
Not Active		Ac-PSPWATVDF-NH2	
	3	Ac-PWATCDF-NH2	
Not Active		Ac-PWATSDS-NH2	ΔTm [3]: 0.2 °C; ΔTm [4]: 0.6 °C; ΔTm [5]: 0.2 °C; ΔTm [6]: 1.5 °C; ΔTm [7]: 0.1 °C; ΔTm [8]: 2.9 °C
	2.2	Ac-SPWATCDF-NH2	

— ChEMBL document CHEMBL3396965, “Peptide inhibitors of the Escherichia coli DsbA oxidative machinery essential for bacterial virulence” (J Med Chem, 2015)
